Calls of active or inactive are those of the source. The rule behind the calls is not given here.
Target: intestinal alkaline phosphatase Alpi (Mus musculus)
Test: mouse IAP enzyme activators, SAR follow-up, human IAP activator project, biochemical (AID 493128)
Details: purified mouse IAP enzyme activity, activation

Row | EC50 | IC50 (inhibition of IAP activity) [µM] | Structure (SMILES)
1 | > 100 µM (inactive) | – | O=C(NC(=S)NNC(=O)c1ccccc1O)c1ccc(F)cc1
2 | > 100 µM (inactive) | – | O=C(N/N=C\c1cccc(O)c1)C(=O)N/N=C/c1cccc(O)c1
3 | > 100 µM (inactive) | – | C/C(=N\NC(=O)c1[nH]nc2c1CCc1ccccc1-2)c1ccccc1O
4 | > 100 µM (inactive) | – | CC(C)Oc1ccccc1/C=N/NC(=O)C(=O)N/N=C/c1ccccc1OC(C)C
5 | > 100 µM (inactive) | – | COc1cc(/C=N/NC(=O)C(=O)N/N=C/c2ccc(O)c(OC)c2)ccc1O
6 | > 100 µM (inactive) | – | COc1cc(/C=N/NC(=O)C(=O)N/N=C/c2cc(OC)c(OC)c(OC)c2)cc(OC)c1OC
7 | > 100 µM (inactive) | – | O=C(NN=Cc1c(O)ccc2ccccc12)c1[nH]ncc1Br
8 | > 100 µM (inactive) | – | O=C(N/N=C/c1c(O)ccc2ccccc12)C(=O)N/N=C/c1c(O)ccc2ccccc12
9 | > 100 µM (inactive) | – | O=C(N/N=C/c1ccccc1C(=O)O)C(=O)N/N=C/c1ccccc1C(=O)O
10 | > 100 µM (inactive) | – | CC(=O)Nc1ccc(/C=N/NC(=O)C(=O)N/N=C/c2ccc(NC(C)=O)cc2)cc1
11 | > 100 µM (inactive) | – | COc1ccc(OC)c(/C=N/NC(=O)C(=O)N/N=C/c2cc(OC)ccc2OC)c1
12 | > 100 µM (inactive) | – | O=C(N/N=C/c1cc(Br)ccc1O)c1cc(C2CC2)[nH]n1
13 | > 100 µM (inactive) | – | O=C(NN=Cc1ccccc1)C(=O)NN=Cc1ccccc1
14 | > 100 µM (inactive) | – | COc1cc(OC)cc(C(=O)NNC(=O)c2nn(C)c(=O)c3ccccc23)c1
15 | > 100 µM (inactive) | – | O=C(NNC(=S)NC(=O)c1ccccc1[N+](=O)[O-])c1ccccc1O
16 | > 100 µM (inactive) | – | Cn1cccc1-c1cc(C(=O)NN=Cc2cc(Br)ccc2O)[nH]n1
17 | > 100 µM (inactive) | – | COc1cccc(C=NNC(=O)C2=NNC(=O)C2C)c1O (stereo unspecified)
18 | > 100 µM (inactive) | – | COC(=O)c1ccc(/C=N/NC(=O)C(=O)N/N=C/c2ccc(C(=O)OC)cc2)cc1
19 | > 100 µM (inactive) | – | CCN(CC)c1ccc(/C=N/NC(=O)C(=O)N/N=C/c2ccc(N(CC)CC)cc2O)c(O)c1

Row | EC50 | IC50 (inhibition of IAP activity) [µM] | Structure (SMILES)
20 | > 100 µM (inactive) | – | O=C(N/N=C/c1cc(Br)ccc1O)C(=O)N/N=C/c1cc(Br)ccc1O
21 | > 100 µM (inactive) | – | COc1ccc(/C=N/NC(=O)C(=O)N/N=C/c2ccc(OC)c(OC)c2)cc1OC
22 | > 100 µM (inactive) | – | O=C(CCN1C(=O)/C(=C/c2ccccc2Cl)SC1=S)NNC(=O)c1ccccc1O
23 | > 100 µM (inactive) | – | Cc1cc(C(=O)N/N=C/c2cc(Br)ccc2O)n[nH]1
24 | > 100 µM (inactive) | – | N#CCOc1ccccc1/C=N/NC(=O)C(=O)N/N=C/c1ccccc1OCC#N
25 | > 100 µM (inactive) | – | COc1cc(/C=N\NC(=O)C(=O)N/N=C/c2cc(OC)c(O)c(OC)c2)cc(OC)c1O
26 | > 100 µM (inactive) | – | O=C(N/N=C/c1ccc(O)cc1)C(=O)N/N=C/c1ccc(O)cc1
27 | > 100 µM (inactive) | – | Cc1ccc(O)c(C=NNC(=O)c2[nH]ncc2Br)c1
28 | > 100 µM (inactive) | – | CCOc1cccc(C=NNC(=O)c2cc(-c3cccn3C)n[nH]2)c1O
29 | > 100 µM (inactive) | – | COc1cccc(C=NNC(=O)C(=O)NN=Cc2cccc(OC)c2O)c1O
30 | > 100 µM (inactive) | – | CN(C)c1ccc(/C=N/NC(=O)C(=O)N/N=C/c2ccc(N(C)C)cc2)cc1
31 | > 100 µM (inactive) | – | COc1cc(OC)c(OC)cc1/C=N/NC(=O)C(=O)N/N=C/c1cc(OC)c(OC)cc1OC
32 | > 100 µM (inactive) | – | COc1cccc(C=NNC(=O)C(=O)NN=Cc2cccc(OC)c2OC)c1OC
33 | > 100 µM (inactive) | – | O=C(N/N=C/c1ccc2c(c1)OCO2)C(=O)N/N=C/c1ccc2c(c1)OCO2
34 | > 100 µM (inactive) | – | Cc1cc(C(=O)NN=Cc2cc(Cl)cc([N+](=O)[O-])c2O)n[nH]1
35 | > 100 µM (inactive) | – | CC1C(=O)NN=C1C(=O)NN=Cc1ccc(O)cc1O (stereo unspecified)
36 | > 100 µM (inactive) | – | Cc1cc(C(=O)N/N=C\c2cc(C(C)(C)C)ccc2O)n[nH]1
37 | – | 0.382 | O=C1Nc2ccc(Br)cc2C12NNc1ccccc1O2 (stereo unspecified)
38 | > 100 µM (inactive) | – | CC(C)C(=O)NC(=S)Nc1ccccc1C(=O)Nc1ccccc1

Row | EC50 | IC50 (inhibition of IAP activity) [µM] | Structure (SMILES)
39 | > 100 µM (inactive) | – | COc1cccc(C=NNC(=O)c2[nH]nc3c2CCc2ccccc2-3)c1O
40 | > 100 µM (inactive) | – | C/C(=N\NC(=O)c1cc(C)[nH]n1)c1ccc2ccccc2c1O
41 | > 100 µM (inactive) | – | CC(=O)Nc1cccc(C(=O)NNC(=O)c2n[nH]c(=O)c3ccccc23)c1
42 | > 100 µM (inactive) | – | COc1ccc(-c2cc(C(=O)NN=Cc3c(O)ccc4ccccc34)[nH]n2)cc1
43 | > 100 µM (inactive) | – | Cc1cc(C(=O)NN=Cc2cccc([N+](=O)[O-])c2O)n[nH]1
44 | > 100 µM (inactive) | – | OC(c1nc2ccc(F)cc2[nH]1)C(O)c1nc2ccc(F)cc2[nH]1 (stereo unspecified)
45 | > 100 µM (inactive) | – | COc1cccc(C=NNC(=O)c2cc(-c3cccn3C)n[nH]2)c1O
46 | > 100 µM (inactive) | – | O=C(N/N=C/c1ccccc1O)c1n[nH]c2c1CCC2
47 | > 100 µM (inactive) | – | O=C(N/N=C\c1ccc2c(c1)OCO2)C(=O)N/N=C/c1ccc2c(c1)OCO2
48 | > 100 µM (inactive) | – | O=C(N/N=C/c1c(O)ccc2ccccc12)c1cc(-c2cccs2)[nH]n1
49 | > 100 µM (inactive) | – | CC(=NNC(=O)C(=O)NN=C(C)c1cccc(O)c1)c1cccc(O)c1
50 | > 100 µM (inactive) | – | Cc1ccc(-c2cc(C(=O)NN=Cc3ccccc3O)n[nH]2)o1
51 | > 100 µM (inactive) | – | CCOc1cc(/C=N/NC(=O)C(=O)N/N=C/c2ccc(O)c(OCC)c2)ccc1O
52 | > 100 µM (inactive) | – | O=C(NN=Cc1ccc(O)cc1O)C(=O)NN=Cc1ccc(O)cc1O
53 | > 100 µM (inactive) | – | CCOc1cccc(C=NNC(=O)c2cc(C3CC3)[nH]n2)c1O
54 | > 100 µM (inactive) | – | CCCCOc1ccc(/C=N/NC(=O)C(=O)N/N=C/c2ccc(OCCCC)cc2)cc1
55 | > 100 µM (inactive) | – | O=C(N/N=C/c1ccccc1O)c1cc(C2CC2)[nH]n1
56 | > 100 µM (inactive) | – | COc1ccc(-c2csc(Nc3cccc4ccccc34)n2)cc1F
